In patent publication US20250032454A1, “KDM1A INHIBITORS FOR THE TREATMENT OF DISEASE” (Imago Biosciences, Inc., priority 2021, published 2025):
Where two headings read alike, the source gives them in different places.

How the values were obtained:
LSD1 = LSD1 (Homo sapiens, UniProt O60341); test: LSD1 fluorescence coupling enzyme assay (HRP/Amplex Red, H3(1-21)K4me2 peptide), 10-dose IC50; type: biochemical; settings: 10 μM histone H3(1-21)K4me2 peptide substrate, 3-fold serial dilution from 100 μM
Procedure, shortened: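 Fluorescence coupled assay: LSD1 demethylation of 10 μM H3(1-21)K4me2 peptide produces FAD-dependent H2O2, detected via HRP/Amplex Red as resorufin (Ex/Em 535/590 nm). IC50 from 10 doses, 3-fold serial dilution from 100 μM, in duplicate.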

MV4;11 cells = test: Cell Titer-Glo cell growth inhibition in MV4;11 cell line (Day 5 / Day 10); type: cell-based; settings: Homo sapiens
Procedure, shortened: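 Cells seeded at 3750/well and treated with a 10-point, 4-fold dose curve from 0 to 50 µM; ATP-based luminescence viability read at Day 5. A portion is reseeded into fresh compound and media for 5 more days, read at Day 10; IC50 derived from luminescence.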

[1] = MV4-11, 120 h, Day 5, read-out: Cell Titer-Glo IC50 (5 d)
[2] = MV4-11, 240 h, Day 10, read-out: Cell Titer-Glo IC50 (10 d)

Row | IC50 (LSD1) [nM] | IC50 (MV4;11 cells; [1]) [nM] | IC50 (MV4;11 cells; [2]) [nM] | Compound
1 | < 500 | 500 to 1000 | < 500 | N#Cc1ccc(-c2cc(NC[C@H]3CCC[C@H](N)C3)nn2-c2cccc(-c3cn[nH]c3)c2)cc1F [Example 53, 4-(1-(3-(1H-pyrazol-4-yl)phenyl)-3-((((1S,3S)-3-aminocyclohexyl)methyl)amino)-1H-pyrazol-5-yl)-2-fluorobenzonitrile]
2 | < 500 | < 500 | < 500 | Cn1cc(-c2ccc(-n3nc(NC[C@H]4CCC[C@H](N)C4)cc3-c3ccc(C#N)c(F)c3)cc2)cn1 [Example 54, 4-(3-((((1S,3S)-3-aminocyclohexyl)methyl)amino)-1-(4-(1-methyl-1H-pyrazol-4-yl)phenyl)-1H-pyrazol-5-yl)-2-fluorobenzonitrile]
3 | < 500 | 500 to 1000 | < 500 | Cn1cc(-c2cccc(-n3nc(NC[C@H]4CCC[C@H](N)C4)cc3-c3ccc(C#N)c(F)c3)c2)cn1 [Example 55, 4-(3-((((1S,3S)-3-aminocyclohexyl)methyl)amino)-1-(3-(1-methyl-1H-pyrazol-4-yl)phenyl)-1H-pyrazol-5-yl)-2-fluorobenzonitrile]
4 | < 500 | < 500 | < 500 | N#Cc1ccc(-c2cc(NC[C@H]3CCC[C@H](N)C3)nn2-c2ccc(-c3cnn(CCO)c3)cc2)cc1F [Example 56, 4-(3-((((1S,3S)-3-aminocyclohexyl)methyl)amino)-1-(4-(1-(2-hydroxyethyl)-1H-pyrazol-4-yl)phenyl)-1H-pyrazol-5-yl)-2-fluorobenzonitrile]
5 | < 500 | 1000 to 10000 | < 500 | N#Cc1ccc(-c2cc(NC[C@H]3CCC[C@H](N)C3)nn2-c2cccc(-c3cnn(CCO)c3)c2)cc1F [Example 57, 4-(3-((((1S,3S)-3-aminocyclohexyl)methyl)amino)-1-(3-(1-(2-hydroxyethyl)-1H-pyrazol-4-yl)phenyl)-1H-pyrazol-5-yl)-2-fluorobenzonitrile]
6 | < 500 | < 500 | < 500 | N#Cc1ccc(-c2cc(NC[C@H]3CCC[C@H](N)C3)nn2-c2ccc(-c3cnn(CCCO)c3)cc2)cc1F [Example 58, 4-(3-((((1S,3S)-3-aminocyclohexyl)methyl)amino)-1-(4-(1-(3-hydroxypropyl)-1H-pyrazol-4-yl)phenyl)-1H-pyrazol-5-yl)-2-fluorobenzonitrile]
7 | < 500 | 1000 to 10000 | < 500 | CS(=O)(=O)n1cc(-c2ccc(-n3nc(NC[C@H]4CCC[C@H](N)C4)cc3-c3ccc(C#N)c(F)c3)cc2)cn1 [Example 59, 4-(3-((((1S,3S)-3-aminocyclohexyl)methyl)amino)-1-(4-(1-(methylsulfonyl)-1H-pyrazol-4-yl)phenyl)-1H-pyrazol-5-yl)-2-fluorobenzonitrile]
8 | 1000 to 10000 | 1000 to 10000 | < 500 | CS(=O)(=O)n1cc(-c2cccc(-n3nc(NC[C@H]4CCC[C@H](N)C4)cc3-c3ccc(C#N)c(F)c3)c2)cn1 [Example 60, 4-(3-((((1S,3S)-3-aminocyclohexyl)methyl)amino)-1-(3-(1-(methylsulfonyl)-1H-pyrazol-4-yl)phenyl)-1H-pyrazol-5-yl)-2-fluorobenzonitrile]
9 | < 500 | < 500 | < 500 | N#Cc1ccc(-c2cc(NC[C@H]3CCC[C@H](N)C3)nn2-c2ccc(-n3ccnn3)cc2)cc1F [Example 61, 4-(1-(4-(1H-1,2,3-triazol-1-yl)phenyl)-3-((((1S,3S)-3-aminocyclohexyl)methyl)amino)-1H-pyrazol-5-yl)-2-fluorobenzonitrile]
10 | 500 to 1000 | 1000 to 10000 | < 500 | N#Cc1ccc(-c2cc(NC[C@H]3CCC[C@H](N)C3)nn2-c2cccc(-n3ccnn3)c2)cc1F [Example 62, 4-(1-(3-(1H-1,2,3-triazol-1-yl)phenyl)-3-((((1S,3S)-3-aminocyclohexyl)methyl)amino)-1H-pyrazol-5-yl)-2-fluorobenzonitrile]
